Literature values in PMC10817174, “Integrated drug response prediction models pinpoint repurposed drugs with effectiveness against rhabdomyosarcoma” (PLOS ONE, 2024).

System: GDSC-SJCRH30 cell line
Details: Table S2, published drug response ref Iorio et al. (2016); cited from earlier work

Compound | Iorio_SJCRH30
Nc1ccn([C@@H]2O[C@H](CO)[C@@H](O)[C@@H]2O)c(=O)n1 [Cytarabine] | S
C=CCNC1=C2C[C@@H](C)C[C@H](OC)[C@H](O)[C@@H](C)/C=C(\C)[C@H](OC(N)=O)[C@@H](OC)/C=C\C=C(/C)C(=O)NC(=CC1=O)C2=O [17-AAG] | R
CN(NC(=O)CC(=O)NN(C)C(=S)c1ccccc1)C(=S)c1ccccc1 [Elesclomol] | R
O=C(NCCCNc1nc(Nc2cccc(NC(=O)N3CCCC3)c2)ncc1I)c1cccs1 [BX-795] | R
CN(C)C/C=C/C(=O)Nc1ccc(C(=O)Nc2cccc(Nc3nccc(-c4cccnc4)n3)c2)cc1 [ZG-10] | R
O=C(NOCC1CC1)c1ccc(F)c(F)c1Nc1ccc(I)cc1Cl [CI-1040] | R
CNC(=O)c1ccccc1Sc1ccc2c(/C=C/c3ccccn3)n[nH]c2c1 [Axitinib] | R
CC[C@@]1(O)C(=O)OCc2c1cc1n(c2=O)Cc2cc3ccccc3nc2-1 [Camptothecin] | R
O=c1cc(-c2cccc3c2Sc2ccccc2S3)oc(N2CCOCC2)c1 [KU-55933] | R
Cn1cc(/C=C2\C(=O)Nc3cccnc32)c2ccccc21 [GW-441756] | S
CCOc1cc(N2CCC(O)CC2)ccc1Nc1ncc2c(n1)N(C)c1ccccc1C(=O)N2C [XMD8-92] | R
NC(=O)c1ccc(N(C(N)=O)c2c(F)cccc2F)nc1-c1ccc(F)cc1F [VX-702] | R
C[C@]1(c2nc3c(C(N)=O)cccc3[nH]2)CCCN1 [ABT-888] | R
CC1=C(/C=C/C(C)=C/C=C/C(C)=C/C(=O)O)C(C)(C)CCC1 [ATRA] | R
Cn1c(=O)n(-c2ccc(C(C)(C)C#N)cc2)c2c3cc(-c4cnc5ccccc5c4)ccc3ncc21 [NVP-BEZ235] | R
CC(=O)O[C@@H]1[C@@H](OC(C)=O)[C@@H](O)[C@H](Oc2c(-c3ccc(O)cc3)oc3cc(O)cc(O)c3c2=O)O[C@H]1C [SL-0101-1] | R
CC[C@]1(O)C[C@@H]2CN(CCc3c([nH]c4ccccc34)[C@@](C(=O)OC)(c3cc4c(cc3OC)N(C)[C@H]3[C@@](O)(C(=O)OC)[C@H](OC(C)=O)[C@]5(CC)C=CCN6CC[C@]43[C@@H]65)C2)C1 [Vinblastine] | R
NC1(c2ccc(-c3nc4ccn5c(=O)[nH]nc5c4cc3-c3ccccc3)cc2)CCC1 [MK-2206] | R
COc1cc2ncnc(Nc3ccc(F)c(Cl)c3)c2cc1OCCCN1CCOCC1 [Gefitinib] | R
COc1ccc(C2=N[C@@H](c3ccc(Cl)cc3)[C@@H](c3ccc(Cl)cc3)N2C(=O)N2CCNC(=O)C2)c(OC(C)C)c1 [Nutlin-3a] | R
CC(=O)O[C@@]12CO[C@@H]1C[C@H](O)[C@@]1(C)C(=O)[C@H](O)C3=C(C)[C@@H](OC(=O)[C@H](O)[C@@H](NC(=O)OC(C)(C)C)c4ccccc4)C[C@@](O)([C@@H](OC(=O)c4ccccc4)[C@H]21)C3(C)C [Docetaxel] | R
O=c1cc(N2CCOCC2)oc2c(-c3cccc4c3sc3ccccc34)cccc12 [NU-7441] | R
CC1(C)CNc2cc(NC(=O)c3cccnc3NCc3ccncc3)ccc21 [AMG-706] | R
NC(=O)c1ncn([C@@H]2O[C@H](CO)[C@@H](O)[C@H]2O)c1N [AICAR] | R
N.N.[Cl][Pt][Cl] [Cisplatin] | R
CS(=O)(=O)c1ccc(C(=O)Nc2ccc(Cl)c(-c3ccccn3)c2)c(Cl)c1 [Vismodegib] | R
C[C@]12O[C@H](C[C@]1(O)CO)n1c3ccccc3c3c4c(c5c6ccccc6n2c5c31)CNC4=O [CEP-701] | R
COc1ccc(-c2ccc3c(N4CCOC[C@@H]4C)nc(N4CCOC[C@@H]4C)nc3n2)cc1CO [AZD8055] | R
O=C(NOC[C@H](O)CO)c1ccc(F)c(F)c1Nc1ccc(I)cc1F [PD-0325901] | R
COc1cc2c(Nc3ccc(NC(=O)c4ccccc4)cc3)ncnc2cc1OCCCN1CCOCC1 [ZM-447439] | R
